Laboratory results from patent US5578639A, “PLA2 inhibitors and their use for inhibition of intestinal cholesterol absorption” (Warner-Lambert Company, priority 1995, dated 1996).
Like-named read-outs stand apart in the source and are kept apart here.

Assays:
porcine pancreatic PLA2 = target: T1, porcine pancreatic PLA2 (Sus scrofa, UniProt P00592); assay: Fluorescence assay of porcine pancreatic PLA2 inhibition in vitro; type: biochemical
T1 construct: purchased Sigma Chemical Company (St. Louis, Mo.); host or cells: porcine pancreas
Source text: The IC50 values for inhibition of porcine pancreatic PLA2, in vitro, are included for comparison with the in vivo activities.
A sensitive fluorescence method was used to measure the activity of pancreatic phospholipase A2 (PLA2) in vitro. PLA2 hydrolyzes the ester bond linking fatty acids to the sn-2 position in glycerophospholipids. Several types of PLA2 exist, including those isolated from venoms, synovial fluid, platelets, immunoactive cell types and the pancreas. The pancreatic PLA2 was the subject of this experiment because of its fundamental role in promoting lipid absorption in the intestine.
PLA2 activity was detected by the loss of pyrene excimer fluorescence that occurs when (1-pyrenyl)decanoic acid is hydrolysed from the sn-2 position of 1,2-bis-(1-pyrenedecanoyl)sn-glycero-3-phosphocholine ((P10)2 PC) by the action of PLA2. The use of similar pyrene-labeled PC substrates to detect PLA2 activity has been described previously (Radvanyi F., Jordan L., Russo-Marie F., Bon C., "A sensitive and continuous fluorometric assay for phospholipase A2 using pyrene-labeled phospholipids in the presence of serum albumin." Anal. Biochem., 177:103-109 (1989)). The full photophysical basis for the assay is described elsewhere (Birks J. B., "Photophysics of Aromatic Molecules," Wiley Interscience, New York, pp 301-371 (1970)).
In brief, pyrene excimers are formed by the complexation of one pyrene moiety in the ground-state with one pyrene moiety in the excited state to form an excited-state dimer (excimer) which fluoresces at longer wavelengths (475 nm emission maximum) than the wavelength range in which excited-state pyrene monomers fluoresce (370-400 nm). Excimer formation is dependent on the concentration of pyrene moieties. (P10)2 PC emits excimer fluorescence almost exclusively due to the fixed juxtaposition of the pyrene chromophores. The substrate concentration is sufficiently dilute so that excimer formation between the products of PLA2 action, namely lysoPY10PC and the (1-pyrenyl)decanoic acid, is insignificant.
In general, this assay scheme should have been applicable to the study of any type of PLA2. However, since pancreatic PLA2 is unique from the other PLA2 's in that it operates almost exclusively against micellized PC, the PC substrate in this assay was micellized with 1 mM deoxycholic acid. The PC component of the micelles consisted of 5 μM (P10)2 PC substrate diluted with a 99-fold excess (495 μM) of 1-oleyl-2-palmityl phosphatidylcholine (OPPC). The OPPC was inert to PLA2 hydrolysis because it contained ether-linked fatty alkyl chains in place of the ester-linked fatty acyl chains of normal PC. OPPC was included to 1) dilute the micellar (P10)2 PC concentration thereby minimizing intermolecular excimer formation, and 2) preserve the integrity of the micelles against the action of PLA2 since nonspecific micelle disruption could lead to nonlinear kinetics and fluorescence changes independent of lipolysis.
Phospholipase A2 (porcine pancreas), bovine serum albumin (BSA) (fraction V, essentially fatty acid-free) and sodium deoxycholate were obtained from Sigma Chemical Company, (St. Louis, Mo.). 1-Oleyl-2-palmityl-DL-phosphatidylcholine (OPPC) was ordered from Serdary Research Laboratories, Inc. (London, Ont., Canada). 1,2-Bis-(1-pyrenedecanoyl)-sn-glycero-3-phosphatidylcholine ((P10)2 PC) was obtained from Molecular Probes, Inc. (Eugene, Oreg.).
HEPES buffer (SHE) contained 150 mM NaCl, 20 mM HEPES (N-[2-hydroxyethyl]piperazine-N'-[2-ethanesulfonic acid]) and 1 mM EDTA (ethylenediamine tetraacetic acid) at pH 8.0.
1 mM (P10)2 PC in chloroform was prepared by adding 1 mL chloroform to a vial containing 1 mg of (P10)2 PC, as shipped by Molecular Probes. The actual concentration was determined spectrophotometrically by diluting 10 μL of the chloroform solution in 2 mL of ethanol. The absorbance spectrum of the ethanol solution was measured between 380 nm to 280 nm (Beckman DU-64). […]

plasma lipids = assay: Plasma lipids in cholesterol-fed rats after oral PLA2 inhibitor; type: in vivo; settings: 100 mg/kg oral gavage, about 8 hours after start of feeding
Method: Ultimately, agents that inhibit the absorption of dietary cholesterol should suppress postprandial increases in plasma cholesterol. This was tested with several. PLA2 inhibitors in cholesterol-fed rats. The general protocol consisted of preparing a carboxymethyl cellulose/Tween 20 dispersion of the compound of interest and administering it at a dose of 100 mg/kg by oral gavage to rats previously trained to meal-feed. Immediately following administration of the inhibitor, the rats were fed a lipid-rich meal of chow supplemented with cholesterol, peanut oil, and cholic acid.

PLA2 = settings: methyl-phosphatidic acid substrate; Jain et al. 1992; read-out: IC50 in "scooting-mode" assay; cited from earlier work
[1] = test system: intestinal lipid absorption; assay: Lymph-fistula rats, diester and diether PC analogs; type: in vivo, rat
Source text: The intestinal lipid absorption pathway was isolated in the rat by inserting an infusion cannula in the proximal duodenum and implanting a second cannula in the mesenteric lymph vessel to intercept the lipoprotein output from the intestine. This lymph-fistula rat model was used to investigate the effect of pancreatic PLA2 inhibition, in situ, on intestinal absorption of infused lipid emulsions. In a typical experiment, cannulae were implanted the day before the experimental infusion. Following surgery, the animals were infused (2.5 mL/hr) with isotonic saline containing dextrose to flush the GI tract and obtain basal levels of lymphatic lipid output. On the day of the experiment, infusion of the dextrose recovery solution was continued for 1 hour to collect a basal lymph fraction. At the start of the next hour, the intake of the duodenal infusion cannula was switched to a lipid emulsion of isotonic saline containing safflower oil (59 mM), cholesterol (5.2 mM), PC (3.3 mM) and taurocholic acid (1.9 mM). One hour lymph fractions were collected until the end of the experiment. The lipid content (mass) of lymph fractions was determined by HPLC with a mass-sensitive, evaporative light-scattering detector.
PC analogs in which the normal acyl chains are replaced by alkyl carbon chains linked to the glycerol backbone by ether bonds have physical-chemical properties similar to conventional diester PC molecules but are not hydrolyzable by PLA2. To determine the significance of micellar PC hydrolysis in intestinal lipid absorption, a comparison was made of the mesenteric lymph lipid output from rats infused with lipid microemulsions prepared with 1,2-dipalmitoyl PC (DPPC(ester)) or 1,2-dipalmityl PC (DPPC(ether)) as the PC constituent. […] The total lymphatic CE output over the 12-hour period of DPPC(ether) infusion was only 47% of total CE output obtained with the DPPC(ester) emulsion.

cholesterol absorption = settings: Rampone and Long 1977; cited from earlier work
Caco-2 cells [2] = assay: Caco-2 phospholipase A2-dependent cholesterol absorption, time course; type: cell-based, human
Caco-2 cells [3] = assay: Caco-2 lipid absorption versus micellar phospholipid composition; type: cell-based, human
Method: Caco-2 cells were used as a tissue culture model of the human intestinal epithelium to compare the effects of phosphatidylcholine and lysophosphatidylcholine on lipid absorption and the subsequent re-esterification and secretion of micelle-derived lipids.
Caco-2 cell monolayers, grown on micropore membranes separating apical and basolateral culture solutions, were incubated with taurocholate, mixed-lipid micelles composed of 5 mM taurocholic acid, 300 μM monooleoylglycerol, 500 μM [^3 H]oleic acid, 100 μM [^14 C]cholesterol, and 200 μM phospholipid consisting of various proportions of 1-palmitoyl-2-oleoyl phosphatidylcholine and 1-palmitoyl lysophosphatidylcholine. The micelles were added to the apical side of the cell monolayers. Phospholipid-free micelles were also tested for comparison. At the end of 6 hours of incubation, the radiolabeled lipid content of the cells and in the basolateral media were determined. Phospholipid content strongly influenced the absorption and metabolism of cholesterol (FIGS. 1, 2) but had only minimal effects on fatty acid uptake and metabolism (FIG. 3). Caco-2 monolayers incubated with micelles containing only phosphatidylcholine as the phospholipid absorbed 65% less [^14 C]cholesterol than cell monolayers incubated with phospholipid-free micelles.

serum cholesterol = settings: neomycin 1.5-2 g/day; β-sitosterol 3-50 g/day; cited from earlier work
[4] = porcine pancreatic PLA2, in vitro, read-out: In Vitro IC50 (porc. panc. PLA2)

T1 sequence (P00592 23-146): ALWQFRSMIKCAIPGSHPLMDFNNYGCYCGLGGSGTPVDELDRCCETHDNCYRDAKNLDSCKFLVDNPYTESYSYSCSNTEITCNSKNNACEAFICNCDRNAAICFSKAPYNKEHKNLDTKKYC

Molecule | IC50 (porcine pancreatic PLA2; [4]) | % Change in plasma lipids vs. Control: HDL Chol. (plasma lipids) | % Change in plasma lipids vs. Control: Total Chol. (plasma lipids) | % Change in plasma lipids vs. Control: non-HDL Chol. (plasma lipids) | % Change in plasma lipids vs. Control: TG (plasma lipids) | further results
1-[4,4-bis(4-fluorophenyl)butyl]-3-(3-methoxyphenyl)-3-methyl-pyrrolidine [Compound C] | 5.7 µM | 38% | -30% | -49% | – | –
CCCCCCC(c1ccc(O)c(C)c1)c1ccc(O)c(C)c1 [Compound A, 4,4'-heptylidenebis-2-methyl-phenol] | 2.2 µM | 1% | -24% | -32% | -11% | –
CCCCCCCC/C=C\CCCCCCCC(N)=O [Compound E, (Z)-9-octadecen-amide, reference compound] | 2.4 µM | 2% | -42% | -56% | -35% | IC50 (PLA2): 0.1 µM; IC50 (porcine pancreatic PLA2; FIG. 12, (P10)2 PC substrate, read-out: IC50 in the fluorescence assay): 3 µM
Cc1ccc(Nc2cccc(Cl)c2)c(/C=C/C(=O)O)c1 [Compound F, 2-(M-chloroanilino)-5-methyl-trans-cinnamic acid] | 8.6 µM | 2% | -15% | -20% | -5% | –
Cc1ccc(Nc2ccccc2F)c(/C=C/C(=O)O)c1 [Compound G, 2-(O-fluoroanilino)-5-methyl-trans-cinnamic acid] | 4.6 µM | 15% | -12% | -21% | -24% | –
CCCCCCCCCCCCCCCCOCC(COP(=O)([O-])OCC[N+](C)(C)C)OCCCCCCCCCCCCCCCC (stereo not drawn) [DPPC(ether), 1,2-dipalmityl PC] | – | – | – | – | – | total lymphatic CE output relative to DPPC(ester) ([1]; 12-hour infusion): 47%; time until lymphatic cholesteryl ester output rose above basal ([1]; after initiation of lipid emulsion infusion): 8 h; onset of rise in lymphatic TG and PC output ([1]; following initiation of lipid infusion): not delayed; total lymphatic PC output relative to DPPC(ester) ([1]; infusion of lipid emulsion): 75%; total lymphatic TG output relative to DPPC(ester) ([1]; infusion of lipid emulsion): 71%
CCCCCCCCCCCCCCCC(=O)OCC(O)COP(=O)([O-])OCC[N+](C)(C)C (stereo not drawn) [lysophosphatidylcholine, 1-palmitoyl lysophosphatidylcholine] | – | – | – | – | – | inhibition of cholesterol absorption by intestinal segments (cholesterol absorption): no inhibition; [3H]oleate-labeled PC synthesis relative to phospholipid-free micelles (Caco-2 cells [2]): slight decrease; reversal of PC effect on cholesterol absorption (Caco-2 cells [3]; 6 hours, lysophosphatidylcholine substituted for phosphatidylcholine): reversed this effect, but only when the mole fraction of micellar lysophosphatidylcholine was greater than 50%
CCCCCCCCCCCCCCCCOCC(COP(=O)([O-])OCC[N+](C)(C)C)OCCCCCCCCCCCCCCCC (stereo not drawn) [nonhydrolyzable phospatidylcholine] | – | – | – | – | – | absorption of lipids into cells (figure legend) ([1]; FIG. 9, nonhydrolyzable phosphatidylcholine): prevents absorption of lipids into cells
CCCCCCCC/C=C\CCCCCCCC(=O)OC(COC(=O)CCCCCCCCCCCCCCC)COP(=O)([O-])OCC[N+](C)(C)C (stereo not drawn) [phosphatidylcholine, 1-palmitoyl-2-oleoyl phosphatidylcholine] | – | – | – | – | – | esterification of micellar [14C]cholesterol (Caco-2 cells [3]; FIG. 1C, micelles with 50% or more of choline lipid as PC): reduced to an even greater extent; inhibition at 200 µM (Caco-2 cells [3]; Homo sapiens, Caco-2, 6 h, read-out: [14C]cholesterol absorbed, reduction vs. phospholipid-free micelles): 65%; ACAT activity in cells (Caco-2 cells [3]; PC-containing micelles): diminished
Neomycin | – | – | – | – | – | reductions in serum cholesterol levels (serum cholesterol): up to 25%
